# How the values were obtained:
# [1] = system: E79 double-chained DNA phage; test: Effect on bacteriophage, numbers of plaques; assay type: cell-based, bacteriophage (indication bacteria pseudomonas aeruginosa)
# Protocol: Yoshixol (4 μl) were added in 1 ml of phage solution (E79 double-chained DNA phage) which was adjusted on about 10^7 per 1 ml, and were mixed well. Then, 10 μl of the mixture sampled after 5, 10, 20, 30 minutes was diluted by quickly adding in 10 ml of medium, so that 100 μl of the phage-diluted solution put into the test tube as the upper plate with the warmed gelatin agar, which was mixed with 100 μl of the indication bacterial solution (pseudomonas aeruginosa) cultured for one night. Then, the adjusted solution of the phages in the test tube was dropped on the agar plate and, homogeneous surface of the upper agar plate was produced by smoothly rotating the plate on the table. After resting it on the table about 10 minute when multilayer gelatin agar sufficiently became solid, they were stocked into the incubator at 37° C. After one night incubation, numbers of plaques were counted. As a result, the numbers of plaques in the 5 min-treated phage solution, in 10 min-treated phage solution and in the […] phage solution with Yoshixol decreased to 33%, 15% and 6% of the plaques formation in the non-treated phage solution, respectively.
# Candida albicans = test: Antifungal effect; assay type: cell-based; conditions: for CFU: 2 μl per 1 ml of culture medium, 10^6 CFU/ml, Sabouraud broth
# thrombin = thrombin (Homo sapiens, UniProt P00734); test: Function and configuration of thrombin, electrophoresis; assay type: biochemical; parameters: thrombin (Behlinger Manheim-Yamanouchi Co.) was investigated by electrophoresis; purchased Behlinger Manheim-Yamanouchi Co; conditions: after treatment with Yoshixol 4 μl
# Protocol: Each physiological effect of trypsin (Wakou Jyunyaku Ltd.) and thrombin (Behlinger Manheim-Yamanouchi Co.) was investigated by electrophoresis. When trypsin was added to bovine albumin (Sigma Co. Saint Louis, Mo., USA) or myoglobin (Sigma Co. Saint Louis, Mo., USA), each primary structure of proteins which consist of albumin was altered by proteolytic action of trypsin. In addition, when thrombin was added to human fibrinogen (Behlinger Manheim-Yamanouchi Co.), a primary structure of proteins which consists of fibrinogen was not found.
# [2] = system: human blood coagulation and fibrin formation; test: Human blood coagulation and fibrin formation, thromboelastgram and scanning electron microscopy; assay type: biochemical
# Protocol: Effect of Yoshixol (4 μl) on human blood coagulation and fibrin formation (thrombin was added to fibrinogen) were investigated by thromboelastgram (Hellige GMBH, West Germany). Also, a magnitude of fibrin network which is formed at human blood coagulation was investigated by a scanning electron microscopy. Coagulation of human blood without treatment with Yoshixol was started within 1-2 min so that maximum level of coagulation occurred approximately within 15 min, followed by gradual decrease due to activation of fibrinolytic system. Immediately after thrombin is added on fibrinogen, viscosity of the sample started to increase, reached to a maximum level within 5-6 minutes. This maximum level was maintained for periods of 6 hours which was observed (referred FIG. 3a). However, when Yoshixol (4 μl) was added in 0.4 ml of whole blood or fibrinogen (160 mg/dl), onset time of blood coagulation and fibrin formation was delayed to 4-5 minutes and maximum aggregation time was occurred within 6-8 minutes. Maximum level of coagulation after the treatment was inhibited by 90% of control which level was maintained over 6 hours of investigation (referred FIG. 3b).
# human blood serum = test: Composition of amino acids in human blood serum; assay type: biochemical; conditions: Yoshixol 4 μl
# Protocol: Changes in composition of amino acids were analyzed by use of 1 ml of human blood serum, 1 ml of human fibrinogen (concentration of 160 mg/dl), 1 ml of human thrombin before and after treatment with Yoshixol (4 μl). The total amino acids in the human blood serum which was treated with Yoshixol decreased by 41%. And, ratio of each composition was altered after the treatment so that as an example the concentration of phosphoserine increased about 20 times which level was from 7.2 picomole to 164.8 picomole.
# E. coli strain no. W3110 = test: Anti-microbacterial effect on E. Coli; assay type: cell-based; conditions: for colony formation unit (CFU): 2 μl per 1 ml of culture medium
# [3] = system: rejected reaction on heterogeneous skin implantation; test: Heterogeneous skin implantation, recipient dogs given Yoshixol intravenously; assay type: in vivo, dog (rabbit skin)
# [4] = system: human defibrinized serum, bovine albumin, human fibrinogen, myoglobin, anti-A blood type serum and anti-B blood type serum; test: Primary structure of proteins, electrophoretic analysis of non-SDS wide page; assay type: biochemical; conditions: 1 ml protein solutions, Yoshixol 4 μl, heated denaturation
# Protocol: Changes in molecular weight composition of the following macromolecular proteins (1 mole solution) before and after treatment with Yoshixol (4 μl) were investigated after heated denaturation by electrophoretic analysis of non-SDS wide page. The used macromolecules proteins solutions of 1 ml are human defibrinized serum, bovine albumin, human fibrinogen, myoglobin, anti-A blood type serum and anti-B blood type serum (Green Cross Co.). Even after treatment with Yoshixol, distribution of molecular weights on electrophoretic analysis was identical to that of the macromolecules proteins which is not treated (referred FIG. 7).
# [5] = 50 μl in the whole space of the schale, indirect contact, 24 hours, 37° C.
compound,measurement,setting,value
"C=C1CC(C)(C)C=CC1=O [Yoshixol, 4,4-dimethyl-6-methylene-2-cyclohexen-1-one]","numbers of plaques, of the plaques formation in the non-treated phage solution","[1]; Yoshixol 4 μl in 1 ml phage solution (about 10^7 per ml), 5 min-treated",33%
same,"numbers of plaques, of the plaques formation in the non-treated phage solution","[1]; Yoshixol 4 μl in 1 ml phage solution, 10 min-treated",15%
same,"numbers of plaques, of the plaques formation in the non-treated phage solution","[1]; Yoshixol 4 μl in 1 ml phage solution, 15 min-treated",6%
same,plaques formation,"[1]; Yoshixol 4 μl in 1 ml phage solution, treated over 20 min",plaques formation did not find
same,CFU,Candida albicans; after 1 hour,zero
same,CFU,Candida albicans; after 3 hours incubated,zero
same,proliferation with evaporating component of Yoshixol,Candida albicans; [5],did not occur
same,physiological function of thrombin to fibrinogen,thrombin,did not occur
same,primary structure of thrombin (electrophoresis),thrombin,did not show any electrophoretic changes
same,maximum aggregation time,[2]; Yoshixol 4 μl in 0.4 ml whole blood or fibrinogen (160 mg/dl),6 to 8 min
same,onset time of blood coagulation and fibrin formation,"[2]; Yoshixol 4 μl in 0.4 ml whole blood or fibrinogen (160 mg/dl), untreated blood 1-2 min",4 to 5 min
same,inhibition of maximum level of coagulation,"[2]; Yoshixol 4 μl in 0.4 ml, level maintained over 6 hours",90 % of control
same,rouleaux formation of erythrocyte and formation of fibrin net,"[2]; morphological investigation, scanning electron microscopy",did not occur
same,decrease of total amino acids in human blood serum,human blood serum; 1 ml human blood serum,41%
same,increase of concentration of phosphoserine,human blood serum; human blood serum,about 20 times
same,concentration of phosphoserine after treatment,"human blood serum; human blood serum, before 7.2 picomole",164.8 picomole
same,colony formation unit (CFU),"E. coli strain no. W3110; after 1 hour cultured, initial 10^8",zero
same,colony formation unit (CFU),"E. coli strain no. W3110; after 24 hours, initial 10^8, control 10^10",zero
same,proliferation with evaporating component of Yoshixol,E. coli strain no. W3110; [5],did not occur
same,"histological aspect of cell death, scanning electron microscopy",E. coli strain no. W3110; final stage after Yoshixol,destroyed resulting in small particles
same,epithelialization of wounded skin,"[3]; dogs, 10 μl/Kg per day intravenously for one week, 3 month after implantation",well epithelialization was found
same,implantation of transplanted rabbit skin,"[3]; dogs, 10 μl/Kg per day of Yoshixol intravenously for one week, no antibiotics or immunosuppressants",implanted on the back of dog over 1 month without a rejection reaction and bacterial infection
same,behaviors of adult mongrel dog,"[3]; intravenous administration, compared with before the treatment","became vigor, youthful and appetite-well"
same,distribution of molecular weights on electrophoretic analysis versus not treated,[4],identical
